The values below come from PMC8769072, “Proteome‐scale mapping of binding sites in the unstructured regions of the human proteome” (Molecular Systems Biology, 2022).

The assay has as its system immobilized GST-tagged bait protein domains. Description: ProP-PD phage selections (HD2 P8, sublibraries, HD2 P3, HD1 P8) with NGS and confidence level. To be noted: for HD2_endomembrane confidence: HD2 P8 endomembrane sublibrary. The class given is binding, human.
[1] abbreviates: bait MAP1LC3A_ATG8__Q9H492_2_121, confidence level (4 = High, 2-3 = Medium, 1 = Low).
[2] abbreviates: HD2 library, bait SUMO1_SUMO__P63165_1_101, known motif instance of the benchmarking set found (TRUE) or not found (FALSE) among selected peptides.
[3] abbreviates: bait OXSR1___O95747_434_527, HD2 library, whether the validated benchmark motif instance was recovered in the ProP-PD selection (TRUE/FALSE).
The mark [4] stands for this setting: bait CRK_SH3_1_P46108_124_198, library HD2, benchmarking set of validated motif instances, TRUE = motif instance recovered in the ProP-PD selection.
Setting [5] is: bait MAP1LC3A_ATG8 (Q9H492 2-121), HD2 library, benchmark motif instance recovered in the ProP-PD selection (TRUE/FALSE).
The mark [6] stands for this setting: bait MAP1LC3A_ATG8 (Q9H492 2-121), HD2 library, confidence level (1-4) of best matching peptide.
[7] abbreviates: bait MAP1LC3A_ATG8 (Q9H492 2-121), HD2 library, specificity score of best matching peptide.

Turning to VDPSTGELQSLQMPES, the best_specificity (library HD2, bait Keap1_KELCH__Q14145_321_609, best matching peptide) amounted to 1. Under “library HD2, bait Keap1_KELCH__Q14145_321_609, confidence level of best matching peptide (4 High, 2-3 Medium, 1 Low)”, this substance displayed a best_confidence of 3. Besides, the motif_found entry (library HD2, bait Keap1_KELCH__Q14145_321_609, whether the validated benchmark motif instance was recovered in the ProP-PD selection (TRUE/FALSE)) is “TRUE”.
Under setting [1], VEEEWVIVSDEEIEEA showed an HD2_endomembrane confidence of 4.
VEVIDLTIESSSDEED registered a best_confidence (bait SUMO1_SUMO__P63165_1_101, HD2 library, confidence level (1-4) of best matching selected peptide) of 4. This substance came in with a best_specificity (bait SUMO1_SUMO__P63165_1_101, HD2 library, specificity score of best matching selected peptide) of 1. Moreover, under “bait SUMO1_SUMO__P63165_1_101, HD2 library, whether the validated benchmark motif instance was recovered in the ProP-PD selection (TRUE/FALSE)”, the motif_found entry was “TRUE”.
Consider VFPRPVLPSLTVSRVI, for which the HD2 confidence (bait ANKRA2_Ank__Q9H9E1_142_313, library HD2 P8) was determined as 4. Moreover, the HD2_nc confidence (bait ANKRA2_Ank__Q9H9E1_142_313, library HD2 P8 nucleocytoplasmic) stood at 3. The HD2_nc count proportions (bait ANKRA2_Ank__Q9H9E1_142_313, library HD2 P8 nucleocytoplasmic, mean normalised NGS counts) turned out to be 0.003084. Where the note is “bait ANKRA2_Ank__Q9H9E1_142_313, library HD2 P8 nucleocytoplasmic, mean raw NGS counts, all selections”, the HD2_nc mean counts is recorded as 216.6.
For VGDTSRGQVIIISDSDDDDDERILSLEK, the motif_found result under setting [2] is on record as “FALSE”.
As for VGRFQVTSSKEPAEPL, the best_confidence (bait OXSR1___O95747_434_527, HD2 library, confidence level (1-4) of best matching selected peptide) is reported as 4. Besides, the best_specificity (bait OXSR1___O95747_434_527, HD2 library, specificity score of best matching selected peptide) was 1. Moreover, the motif_found entry under setting [3] is “TRUE”.
Take VGSQADTNVIDLTGDDKDDL: the motif_found entry under setting [2] is “FALSE”.
As for VIGSADCNVIEIDDTLDDSDED, under setting [2], the motif_found result was “FALSE”.
As to VLGDQRRPSLPALHFIKGAGKK, for the setting “library HD2, bait ANKRA2_Ank__Q9H9E1_142_313, motif instance NOT in library (in_library_check FALSE, in_library_coverage 0)”, the motif_found result is on record as “FALSE”.
As for VMSLPKLQQVPGLHPQ, the HD confidence (bait ANKRA2_Ank__Q9H9E1_142_313, library HD) was found to be 3. Further, the HD count proportions (bait ANKRA2_Ank__Q9H9E1_142_313, library HD, mean normalised NGS counts) worked out at 0.003008. Besides, under “bait ANKRA2_Ank__Q9H9E1_142_313, library HD, mean raw NGS counts, all selections”, the HD mean counts was determined as 34.0.
In turn, VPNVHAAEFVPSFLRG registered a best_confidence (bait PABP-B_PABP__P11940_544_623, HD2 library, confidence level (1-4) of best matching selected peptide) of 4. The same substance returned a best_specificity (bait PABP-B_PABP__P11940_544_623, HD2 library, specificity score of best matching selected peptide) of 1. Also, the motif_found entry (bait PABP-B_PABP__P11940_544_623, HD2 library, whether the validated benchmark motif instance was recovered in the ProP-PD selection (TRUE/FALSE)) is listed as “TRUE”.
Consider VPSPASLWPPPPSPAPSST, for which, for the setting “library HD2, bait VASP_EVH1__P50552_1_114, validated benchmark motif instance, in_library_check TRUE, TRUE/FALSE = instance recovered in ProP-PD selection”, the motif_found result is “FALSE”.
As for VPTLPPKQQFLPSSPG, the HD2_nc confidence (bait CRK_SH3_1_P46108_124_198, HD2 P8 nucleocytoplasmic sublibrary, confidence level (4 = High, 2-3 = Medium, 1 = Low)) is on record as 4. Further, under “bait CRK_SH3_1_P46108_124_198, HD2 P8 nucleocytoplasmic sublibrary, mean NGS counts over replicate selections”, the HD2_nc mean counts was determined as 1917.0. The HD2_nc count proportions (bait CRK_SH3_1_P46108_124_198, HD2 P8 nucleocytoplasmic sublibrary, mean proportion of NGS counts) came out at 0.01185.
In turn, VQPKQDAFANFANFSK had an HD confidence (bait AP2B1_adaptin__P63010_700_937, library HD) of 2. The same substance showed an HD count proportions (bait AP2B1_adaptin__P63010_700_937, library HD, mean normalised NGS counts) of 0.0004926. The HD mean counts (bait AP2B1_adaptin__P63010_700_937, library HD, mean raw NGS counts, all selections) is given as 1.25.
Turning to VSGSHCTPPPPYHADP, where the note is “library HD2, bait YAP1_WW_1_P46937_169_207, confidence level of best matching selected peptide (4 High, 2-3 Medium, 1 Low)”, the best_confidence is 4. The same substance displayed a best_specificity (library HD2, bait YAP1_WW_1_P46937_169_207, specificity score of best matching selected peptide) of 0.99. The motif_found entry (library HD2, bait YAP1_WW_1_P46937_169_207, validated benchmark motif instance, in_library_check TRUE, TRUE/FALSE = instance recovered in ProP-PD selection) is recorded as “TRUE”.
For VSPSTSY, the motif_found entry (library HD2, bait USP7_MATH-TRAF__Q93009_53_206, validated benchmark motif instance, in_library_check TRUE, TRUE/FALSE = instance recovered in ProP-PD selection) was “FALSE”.
On to VSSAAPSPRGCADGRDADPTEE, for which, for the setting “HD2 library, bait TNKS_TANK-peptide-bind__O95271_174_649, known motif instance of the benchmarking set found (TRUE) or not found (FALSE) among selected peptides”, the motif_found result was “FALSE”.
Turning to VSVDSIPLEWDHTGDVGGSSSHE, under “library HD2, bait KLC1_TPR__Q07866_203_497, whether the validated benchmark motif instance was recovered in the ProP-PD selection (TRUE/FALSE)”, the motif_found entry was “FALSE”.
For VVDNSPPPALPPKKRQSAPS [RAPGEF1], under setting [4], the motif_found result is listed as “FALSE”.
Regarding VVHSAGRRFIVSPVPESRL, under setting [3], the motif_found result was “FALSE”.
As for WADFSSTWPTSTNEKP, under “bait AP2B1_adaptin__P63010_700_937, confidence level (4 = High, 2-3 = Medium, 1 = Low)”, the HD2_endomembrane confidence is 4.
For the substance WAKFSNDNIKHSQNMR, the HD confidence (bait AP2B1_adaptin__P63010_700_937, HD1 P8 library, confidence level (4 = High, 2-3 = Medium, 1 = Low)) came out at 4. Where the note is “bait AP2B1_adaptin__P63010_700_937, HD1 P8 library, mean NGS counts over replicate selections”, the HD mean counts came out at 1.5. For the setting “bait AP2B1_adaptin__P63010_700_937, HD1 P8 library, mean proportion of NGS counts”, this substance showed an HD count proportions of 0.0005262.
For the setting “bait CALM1 EF-hand (P0DP23, 2-149), HD2 library selection with 1mM_CaCl, confidence level (4 = High, 2 or 3 = Medium, 1 = Low)”, WEALNDSVKTSMHWVV returned an HD2-1mM_CaCl confidence of 2. The same substance returned an HD2 confidence (bait CALM1 EF-hand (P0DP23, 2-149), HD2 library selection, confidence level (4 = High, 2 or 3 = Medium, 1 = Low)) of 3.
In turn, WEMVPRHSSWGDVGVG gave an HD2_endomembrane confidence under setting [1] of 4.
As for WNERQPAPALPPKPPKPTTV [PIK3R1], the motif_found entry under setting [4] is on record as “TRUE”.
In the case of WQPFPDDHSACLRPGS, the HD2 confidence (bait AP2B1_adaptin__P63010_700_937, HD2 P8 selection, non primary paralogue peptide match, confidence level -4 to 4: 4 = High, 3 or 2 = Medium, 1 = Low, 0 = Filtered/Noise) was 3.
Substance WRVLGLCLLSVGVWGQ gave an HD2_cytoplasm confidence (bait CALM1_EF-hand__P0DP23_2_149, HD2 P8 cytoplasm sublibrary, confidence level (4 = High, 2-3 = Medium, 1 = Low)) of 3.
As to WTHLSSKEVDPSTGEL, the motif_found entry under setting [5] is given as “TRUE” and the motif_found result (bait MAP1LC3B_ATG8 (Q9GZQ8 2-119), HD2 library, benchmark motif instance recovered in the ProP-PD selection (TRUE/FALSE)) is listed as “TRUE”. The best_confidence was found to be 4 under setting [6] and 3 (bait MAP1LC3B_ATG8 (Q9GZQ8 2-119), HD2 library, confidence level (1-4) of best matching peptide). The best_specificity is recorded as 1 under setting [7] and 1 (bait MAP1LC3B_ATG8 (Q9GZQ8 2-119), HD2 library, specificity score of best matching peptide).
In the case of WTMVDENFSTLSLTQS, under setting [1], the HD2_endomembrane confidence was 4.
In the case of WVELPMNSSNGNDNGN, the motif_found entry under setting [5] is on record as “TRUE”. For the same substance, under setting [6], the best_confidence was found to be 2. Under setting [7], the best_specificity is given as 1.
As for YAKKVGYTPDWIFLLRNVMRI [CLTC 511-517], the motif_found entry reads like this: (HD2 library, bait MAP1LC3A_ATG8__Q9H492_2_121, benchmark motif instance, in_library_check FALSE, in_library_coverage 0) “FALSE”; (HD2 library, bait MAP1LC3B_ATG8__Q9GZQ8_2_119, benchmark motif instance, in_library_check FALSE, in_library_coverage 0) “FALSE”.
YDREFLLDFQFMPACI displayed a best_specificity (library HD2, bait EIF4E_eIF4E__P06730_1_217, best matching peptide) of 1. Under “library HD2, bait EIF4E_eIF4E__P06730_1_217, confidence level of best matching peptide (4 High, 2-3 Medium, 1 Low)”, this substance had a best_confidence of 2. Also, the motif_found result (library HD2, bait EIF4E_eIF4E__P06730_1_217, whether the validated benchmark motif instance was recovered in the ProP-PD selection (TRUE/FALSE)) is given as “TRUE”.
Take “YRLARQRIIQFQARCRAYLVRKAFRHRLWAV [MYO7A 817-833]”: under “HD2 library, bait CALM1_EF-hand__P0DP23_2_149, benchmark motif instance, in_library_check FALSE, in_library_coverage 0”, the motif_found entry is recorded as “FALSE”.
With YSFFSPSPARKRHAPSPEPAV, the motif_found result (bait KPNA4_Arm (O00629 68-487), HD2 library, benchmark motif instance recovered in the ProP-PD selection (TRUE/FALSE)) was “FALSE”.
In the case of YTSPSLPNISLGLQAT, the best_specificity (bait ANKRA2_Ank__Q9H9E1_142_313, library HD2, best matching peptide) amounted to 1. This substance gave a best_confidence (bait ANKRA2_Ank__Q9H9E1_142_313, library HD2, confidence level of best matching peptide (4 = High, 2 or 3 = Medium, 1 = Low)) of 4.
